Results on six sequences are retold here after US20030228324A1, “Peptide compositions and methods of producing and using same” (priority 1999, published 2003).

“Also recorded” adds a separate entry of the source.

In data set [1] the target is AcPAK(128-144)OH (Pseudomonas aeruginosa, UniProt P02973). The data set is classed as binding.
Data set [2] concerns peptide antigen used to raise the antiserum. Briefly: Competition ELISA, antiserum affinity for its own peptide antigen. Details: species or system Pseudomonas aeruginosa. The note with it: peptide giving 50% inhibition of antibody binding to PAK pilin; read-out: Antigen I50. For orientation: In an ELISA, binding on a coated surface is turned into a signal by an enzyme label.
The subject of data set [3] is AcPAO(128-144)OH. The data set is classed as binding, Pseudomonas aeruginosa. The note with it: cross-reactivity of an antiserum: affinity for native PAK over native PAO peptide, 1 = same affinity.
In data set [4] the target is AcPAO(128-144)OH (Pseudomonas aeruginosa, UniProt P04739). The data set is classed as binding. The note with it: for cross-reactivity of the antiserum with PAO: antiserum raised to the named peptide.
For data set [5], the system named is AcP1(126-148)OH. In words: Competition ELISA, antiserum affinity for P1 peptide. The format is binding, Pseudomonas aeruginosa. The note with it: for cross-reactivity of the antiserum with P1: antiserum raised to the named peptide.
The test system of data set [6] is AcKB7(128-144)OH. Briefly: Competition ELISA, antiserum affinity for KB7 peptide. The data set is classed as binding, Pseudomonas aeruginosa. The note with it: for cross-reactivity of the antiserum with KB7: antiserum raised to the named peptide.
Data set [7] concerns KB7 wild-type. In words: Active immunization with peptide, mice, KB7 wild-type challenge. The format is in vivo, Pseudomonas aeruginosa. The note with it: immunized animals (FIG. 6). The method, then: (§1) A.BY/SnJ mice were actively immunized at week 0 with 40-50 μg of peptide-tetanus toxoid conjugate mixed with 100 μg of Adjuvax as adjuvant in 50 μl of 10 mM PBS at pH 7.2. Control mice were given 50 μ of 10 mM PBS at pH 7.2 containing 100 μg of Adjuvax. […] Each test group and the control group consisted of ten animals. The effectiveness of the vaccine was determined by the survival rate of the test animals up to 48 hours.

Data set [8] relates to Pseudomonas aeruginosa agarose beads. Briefly: Active intratracheal model, CF mice. The format is in vivo. The settings on record: 10 days post i.t. challenge.
Data set [9] relates to P1 wild-type. In words: Active immunization with peptide, mice, P1 wild-type challenge. The data set is classed as in vivo, Pseudomonas aeruginosa. The settings on record: immunized animals (FIGS. 4, 5). The protocol:
as §1

In data set [10] the test system is Pseudomonas aeruginosa strain PAO. The note with it: in vivo.
Data set [11] relates to PAK wild-type. Briefly: Active immunization with peptide, mice, PAK wild-type challenge. The data set is classed as in vivo, Pseudomonas aeruginosa. The settings on record: immunized animals (FIG. 7). The protocol:
as §1

The mark [12] stands for this setting: fold increase (+) or decrease (−) in affinity compared to antiserum 17-01.

As for KCTSDQDPQFIPKGCSK [E135P], the IC50 in data set [1] (competition ELISA on PAK pili, read-out: I50 for PAK) stood at 0.41 µM; in data set [2], 0.7 µM; in [4] (competition ELISA on PAK pili, read-out: I50 for PAO), 4750 µM; in data set [5] (competition ELISA on PAK pili, read-out: I50 for P1), 176 µM; in [6] (peptide giving 50% inhibition of antibody binding to PAK pilin, read-out: KB7 I50) it was 835 µM. For the same sequence, the “PAK A” value in data set [1] (setting [12]) is −2.2. In addition, the KPAK/KPAO in data set [3] is reported as 11,600. Also, in data set [4], the “cross-reactivity of the antiserum with PAO” value (“cross-reactivity … with PAO” for short) is “not able to effectively bind; also recorded: less cross-reactive than native PAK antiserum; also recorded: less cross-reactive to PAO than PAK peptide”. Besides, the “PAO A” value in [4] (setting [12]) is reported as −19.7. In addition, the “cross-reactivity of the antiserum with P1” value in data set [5] is given as “not cross-reactive”. Further, in [5] (setting [12]), the “PI A” value was “+6.9”. The “cross-reactivity of the antiserum with KB7” value in [6] is given as “not able to effectively bind; also recorded: not cross-reactive”. In addition, in data set [6] (setting [12]), the “KB7 A” value is reported as −1.2.

As for KCKSDQDPQFIPKGCSK [CS1], the “cross-reactivity of the antiserum with PAK” value in [1] (antiserum raised to the named peptide) was “very high cross-reactivities”. In addition, the “protection after KB7 wild-type challenge” value in data set [7] was “effective in protecting; also recorded: good protection”. Besides, the “Colony Forming Units in BAL Fluid” value in data set [8] (immunized i.n. & i.p.) is 47 CFU (× 10^3)/mL; in data set [8] (immunized i.n.), 0 CFU (× 10^3)/mL; in data set [8] (immunized i.p.), 5 CFU (× 10^3)/mL. Further, the “White Blood Cell Counts in BAL Fluid, Total Cells” value in [8] (immunized i.n. & i.p.) was 4 (× 10^4)/mL; in data set [8] (immunized i.n.), 1 (× 10^4)/mL; in data set [8] (immunized i.p.), 28 (× 10^4)/mL. Moreover, in data set [9], the “protection after P1 wild-type challenge” value is recorded as “effective in protecting; also recorded: high level of protection”. In data set [4], the “cross-reactivity … with PAO” value is listed as “very high cross-reactivities”. For the same sequence, the “cross-reactivity of the antiserum with P1” value in [5] was “moderate cross-reactivities”. The “cross-reactivity of the antiserum with KB7” value in data set [6] is on record as “moderate cross-reactivities”.

For the sequence “KCTSDQDEQFIPKGCSK [PAK, reference compound]”, the “cross-reactivity … with PAO” value in data set [4] is reported as “cross-reactive with the native PAO sequence”. The “protection / survival time after PAO wild-type challenge” value in data set [10] was “does not provide protection against PAO challenge”.

Take KCKSTQDEMFTPKGCSK [CS4]: the “protection after P1 wild-type challenge” value in data set [9] is recorded as “good protection”.

As to KCTSTQDPQFTPKGCSK [CS3], the “protection after P1 wild-type challenge” value in [9] was “high level of protection”.

On to KCTSTQDPQFIPKGCSK [CS2], for which the “protection after P1 wild-type challenge” value in [9] is given as “high level of protection”. Besides, the “cross-reactivity … with PAO” value in data set [4] is reported as “enhanced cross-reactivity to PAO”. Besides, the “protection / survival time after PAO wild-type challenge” value in data set [10] was “complete protection”. The “protection after PAK wild-type challenge” value in data set [11] was “very high level of protection”.
